Laboratory results as given in patent US9034877B2 (Wayne State University, priority 2009, dated 2015).
Counter-ions that a name gives are not always drawn.

Tests used:
D3 receptor = molecular target: T1, D3 receptor (Rattus norvegicus, UniProt P19020); assay: Inhibition of [3H]spiperone binding to cloned D3 receptors expressed in HEK-293 cells; settings: for Ki: [3H]spiperone, rat D3 in HEK-293 cells
T1 construct: expressed in transfected cells

hD3 receptor = molecular target: T2, hD3 receptor (Homo sapiens, UniProt P35462); assay: Stimulation of [35S]GTPγS binding, hD3 receptor expressed in CHO cells; assay type: biochemical
T2 construct: expressed in transfected cells; host or cells: CHO

D2L receptor = molecular target: T3, D2L receptor (Rattus norvegicus, UniProt P61169); assay: Inhibition of [3H]spiperone binding to cloned D2L receptors expressed in HEK-293 cells; settings: rat D2L in HEK-293 cells, read-out: Ki, D2 receptor
T3 construct: expressed in transfected cells

6-OHDA lesioned rats = assay: Rotational experiment with 6-OHDA unilaterally lesioned rats; assay type: in vivo, rat; settings: 0.05 mg/kg, 21 days post lesion, recorded for 30 min

T3 sequence (P61169 whole entry): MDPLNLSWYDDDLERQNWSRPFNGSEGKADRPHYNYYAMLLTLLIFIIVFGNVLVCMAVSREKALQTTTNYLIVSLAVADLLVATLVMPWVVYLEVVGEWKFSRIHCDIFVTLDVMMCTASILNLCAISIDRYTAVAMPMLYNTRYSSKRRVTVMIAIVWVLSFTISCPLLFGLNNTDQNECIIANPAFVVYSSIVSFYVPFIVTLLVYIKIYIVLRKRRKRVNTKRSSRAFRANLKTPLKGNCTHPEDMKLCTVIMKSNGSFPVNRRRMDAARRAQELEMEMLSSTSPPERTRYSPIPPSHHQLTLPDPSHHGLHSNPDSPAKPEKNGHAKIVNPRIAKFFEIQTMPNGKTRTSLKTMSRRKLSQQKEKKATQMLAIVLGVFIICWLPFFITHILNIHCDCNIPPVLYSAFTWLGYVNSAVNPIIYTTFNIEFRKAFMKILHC
T1 sequence (P19020 whole entry): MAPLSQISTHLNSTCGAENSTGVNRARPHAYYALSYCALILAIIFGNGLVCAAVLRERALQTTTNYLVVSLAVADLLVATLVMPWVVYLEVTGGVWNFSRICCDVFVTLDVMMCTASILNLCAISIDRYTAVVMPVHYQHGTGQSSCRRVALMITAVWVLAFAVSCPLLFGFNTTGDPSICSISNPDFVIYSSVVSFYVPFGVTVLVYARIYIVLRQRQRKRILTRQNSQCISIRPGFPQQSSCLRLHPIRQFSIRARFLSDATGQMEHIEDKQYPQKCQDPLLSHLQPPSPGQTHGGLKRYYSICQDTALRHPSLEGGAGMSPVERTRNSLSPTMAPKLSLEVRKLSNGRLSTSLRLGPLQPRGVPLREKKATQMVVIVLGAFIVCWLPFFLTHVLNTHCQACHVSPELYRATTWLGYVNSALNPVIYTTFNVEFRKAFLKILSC
T2 sequence (P35462 whole entry): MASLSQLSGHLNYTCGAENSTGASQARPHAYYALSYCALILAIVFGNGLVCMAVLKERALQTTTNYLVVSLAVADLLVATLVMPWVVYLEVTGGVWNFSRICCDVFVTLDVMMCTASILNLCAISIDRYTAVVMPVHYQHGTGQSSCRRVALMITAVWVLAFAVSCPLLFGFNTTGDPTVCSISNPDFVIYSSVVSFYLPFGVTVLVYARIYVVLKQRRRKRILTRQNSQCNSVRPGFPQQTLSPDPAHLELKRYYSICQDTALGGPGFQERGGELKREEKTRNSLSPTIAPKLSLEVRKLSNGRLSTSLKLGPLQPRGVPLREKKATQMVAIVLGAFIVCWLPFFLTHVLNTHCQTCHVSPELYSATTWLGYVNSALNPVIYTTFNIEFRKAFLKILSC

CCCN(CCN1CCN(C(=O)c2cc3ccccc3[nH]2)CC1)C1CCc2ccc(O)cc2C1 (stereo not drawn) (as salt: HCl) [Compound 40c, (4-{2-[(7-Hydroxy-1,2,3,4-tetrahydro-naphthalen-2-yl)-propyl-amino]-ethyl}-piperazin-1-yl)-(1H-indol-2-yl)-methanone]
melting point: 203 to 205 °C

CCCN(CCN1CCN(C(=O)c2c[nH]c3ccccc23)CC1)C1CCc2c(O)cccc2C1 (stereo not drawn) (as salt: HCl) [Compound 40f, (4-{2-[(5-Hydroxy-1,2,3,4-tetrahydro-naphthalen-2-yl)-propyl-amino]-ethyl}-piperazin-1-yl)-(1H-indol-3-yl)-methanone]
melting point: 147 to 151 °C

CCCN(CCN1CCN(C(=O)c2n[nH]c3ccccc23)CC1)C1CCc2c(O)cccc2C1 (stereo not drawn) (as salt: HCl) [Compound 40g, (4-{2-[(5-Hydroxy-1,2,3,4-tetrahydro-naphthalen-2-yl)-propyl-amino]-ethyl}-piperazin-1-yl)-(1H-indazol-3-yl)-methanone]
melting point: 167 to 170 °C

CCCN(CCN1CCN(C(=O)c2cc3ccccc3s2)CC1)C1CCc2c(O)cccc2C1 (stereo not drawn) (as salt: HCl) [Compound 40i, Benzo[b]thiophen-2-yl-(4-{2-[(5-hydroxy-1,2,3,4-tetrahydro-naphthalen-2-yl)-propyl-amino]-ethyl}-piperazin-1-yl)-methanone]
melting point: 131 to 134 °C

CCCN(CCN1CCN(C(=O)c2cnc3ccccc3c2)CC1)C1CCc2c(O)cccc2C1 (stereo not drawn) (as salt: HCl) [Compound 40j, (4-{2-[(5-Hydroxy-1,2,3,4-tetrahydro-naphthalen-2-yl)-propyl-amino]-ethyl}-piperazin-1-yl)-quinolin-3-yl-methanone]
melting point: 142 to 146 °C

CCCN(CCN1CCN(Cc2ccc(O)c3ncccc23)CC1)C1CCc2c(O)cccc2C1 (stereo not drawn) (as salt: hydrochloride) [Compound 12b, 5-((4-(2-((5-hydroxy-1,2,3,4-tetrahydronaphthalen-2-yl)(propyl)amino)ethyl)piperazin-1-yl)methyl)quinolin-8-ol]
melting point: 252 to 255 °C

CCCN(CCN1CCN(Cc2ccc3[nH]ccc3c2)CC1)C1CCc2ccc(O)cc2C1 (stereo not drawn) (as salt: oxalate) [Compound 40b, 7-({2-[4-(1H-Indol-5-ylmethyl)-piperazin-1-yl]-ethyl}-propyl-amino)-5,6,7,8-tetrahydro-naphthalen-2-ol]
melting point: 198 to 203 °C

CCCN(CCN1CCN(Cc2cc3ccccc3[nH]2)CC1)C1CCc2ccc(O)cc2C1 (stereo not drawn) (as salt: oxalate) [Compound 40d, 7-({2-[4-(1H-Indol-2-ylmethyl)-piperazin-1-yl]-ethyl}-propyl-amino)-5,6,7,8-tetrahydro-naphthalen-2-ol]
melting point: 135 to 137 °C

CCCN(CCN1CCN(c2ccc3[nH]ccc3c2)CC1)C1CCc2ccc(O)cc2C1 (stereo not drawn) (as salt: oxalate) [Compound 52, 7-((2-(4-(1H-indol-5-yl)piperazin-1-yl)ethyl)(propyl)amino)-5,6,7,8-tetrahydro-naphthalen-2-ol]
melting point: 179 to 183 °C

CCCN(CCN1CCN(C(=O)c2cc3ccccc3[nH]2)CC1)C1CCc2c(O)cccc2C1 (racemic) [Compound 40e, (4-{2-[(5-Hydroxy-1,2,3,4-tetrahydro-naphthalen-2-yl)-propyl-amino]-ethyl}-piperazin-1-yl)-(1H-indol-2-yl)-methanone]
Ki (D3 receptor): 0.55 nM

CCCN(CCN1CCN(C(=O)c2cc3ccccc3[nH]2)CC1)C1CCc2c(O)cccc2C1 (single isomer, unassigned; (+)) (as salt: HCl) [Compound (+)-40e, (+)-(4-{2-[(5-Hydroxy-1,2,3,4-tetrahydro-naphthalen-2-yl)-propyl-amino]-ethyl}-piperazin-1-yl)-(1H-indol-2-yl)-methanone]
melting point: 169 to 170 °C

CCCN(CCN1CCN(c2ccnc3c(O)cccc23)CC1)C1CCc2c(O)cccc2C1 (single isomer, unassigned; (+)) (as salt: hydrochloride) [(+)19b, (+)-4-(4-(2-((5-hydroxy-1,2,3,4-tetrahydronaphthalen-2-yl) (propyl)amino)ethyl)piperazin-1-yl)quinolin-8-ol]
melting point: 230 to 232 °C

CCCN(CCN1CCN(c2ccnc3c(O)cccc23)CC1)C1CCc2ccc(O)cc2C1 (single isomer, unassigned; (+)) [(+)19a, (+)-4-(4-(2-((7-hydroxy-1,2,3,4-tetrahydronaphthalen-2-yl) (propyl)amino)ethyl)piperazin-1-yl)quinolin-8-ol]
Agonism at D3 compared with dopamine (hD3 receptor): full or near-complete agonism

CCCN(CCN1CCN(C(=O)c2cc3ccccc3[nH]2)CC1)C1CCc2c(O)cccc2C1 (single isomer, unassigned; (-)) (as salt: HCl) [Compound (−)-40e, (−)-(4-{2-[(5-Hydroxy-1,2,3,4-tetrahydro-naphthalen-2-yl)-propyl-amino]-ethyl}-piperazin-1-yl)-(1H-indol-2-yl)-methanone]
melting point: 168 to 169 °C

CCCN(CCN1CCN(c2ccnc3c(O)cccc23)CC1)C1CCc2c(O)cccc2C1 (single isomer, unassigned; (-)) (as salt: hydrochloride) [Compound (−)19b, (−)-4-(4-(2-((5-hydroxy-1,2,3,4-tetrahydronaphthalen-2-yl) (propyl)amino)ethyl)piperazin-1-yl)quinolin-8-ol]
melting point: 237 to 240 °C

CCCN(CCN1CCN(Cc2ccc(O)c3ncccc23)CC1)C1CCc2ccc(O)cc2C1 (stereo not drawn) [Compound 12a, 5-((4-(2-((7-hydroxy-1,2,3,4-tetrahydronaphthalen-2-yl)(propyl)amino)ethyl)piperazin-1-yl)methyl) quinolin-8-ol]
Ki (D3 receptor): 5.57 nM
Ki (D2L receptor): 86 nM

CCCN(CCN1CCN(Cc2ccc(O)c3ncccc23)CC1)C1CCc2c(O)cccc2C1 (stereo not drawn) [Compound 12b, 5-((4-(2-((5-hydroxy-1,2,3,4-tetrahydronaphthalen-2-yl)(propyl)amino)ethyl)piperazin-1-yl)methyl)quinolin-8-ol]
Ki (D3 receptor): 3.71 nM

CCCN(CCN1CCN(c2ccnc3c(O)cccc23)CC1)C1CCc2c(O)cccc2C1 (stereo not drawn) [Compound 19b]
Ki (D3 receptor): 1.35 nM

CCCN(CCN1CCN(Cc2ccc3[nH]ccc3c2)CC1)C1CCc2ccc(O)cc2C1 (stereo not drawn) [Compound 40b, 7-({2-[4-(1H-Indol-5-ylmethyl)-piperazin-1-yl]-ethyl}-propyl-amino)-5,6,7,8-tetrahydro-naphthalen-2-ol]
Ki (D3 receptor): 3.87 nM
Ki (D2L receptor): 144 nM

CCCN(CCN1CCN(C(=O)c2cc3ccccc3[nH]2)CC1)C1CCc2ccc(O)cc2C1 (stereo not drawn) [Compound 40c, (4-{2-[(7-Hydroxy-1,2,3,4-tetrahydro-naphthalen-2-yl)-propyl-amino]-ethyl}-piperazin-1-yl)-(1H-indol-2-yl)-methanone]
D2/D3 (Ki ratio, binding selectivity) (D3 receptor; Ki D2 / Ki D3): 31
Ki (D3 receptor): 3.72 nM
Ki (D2L receptor): 116 nM

CCCN(CCN1CCN(C(=O)c2c[nH]c3ccccc23)CC1)C1CCc2c(O)cccc2C1 (stereo not drawn) [Compound 40f, (4-{2-[(5-Hydroxy-1,2,3,4-tetrahydro-naphthalen-2-yl)-propyl-amino]-ethyl}-piperazin-1-yl)-(1H-indol-3-yl)-methanone]
Ki (D3 receptor): 3.62 nM
Ki (D2L receptor): 58.9 nM

CCCN(CCN1CCN(C(=O)c2n[nH]c3ccccc23)CC1)C1CCc2c(O)cccc2C1 (stereo not drawn) [Compound 40g, (4-{2-[(5-Hydroxy-1,2,3,4-tetrahydro-naphthalen-2-yl)-propyl-amino]-ethyl}-piperazin-1-yl)-(1H-indazol-3-yl)-methanone]
Ki (D3 receptor): 2.83 nM
Ki (D2L receptor): 28 nM

CCCN(CCN1CCN(C(=O)c2cc3ccccc3s2)CC1)C1CCc2c(O)cccc2C1 (stereo not drawn) [Compound 40i, Benzo[b]thiophen-2-yl-(4-{2-[(5-hydroxy-1,2,3,4-tetrahydro-naphthalen-2-yl)-propyl-amino]-ethyl}-piperazin-1-yl)-methanone]
Ki (D3 receptor): 1.69 nM
Ki (D2L receptor): 76.9 nM

CCCN(CCN1CCN(C(=O)c2cnc3ccccc3c2)CC1)C1CCc2c(O)cccc2C1 (stereo not drawn) [Compound 40j, (4-{2-[(5-Hydroxy-1,2,3,4-tetrahydro-naphthalen-2-yl)-propyl-amino]-ethyl}-piperazin-1-yl)-quinolin-3-yl-methanone]
Ki (D2L receptor): 158 nM

CCCN(CCN1CCN(c2ccc3[nH]ccc3c2)CC1)C1CCc2ccc(O)cc2C1 (stereo not drawn) [Compound 52, 7-((2-(4-(1H-indol-5-yl)piperazin-1-yl)ethyl)(propyl)amino)-5,6,7,8-tetrahydro-naphthalen-2-ol]
Ki (D3 receptor): 2 nM
Ki (D2L receptor): 30 nM

CCCN(CCN1CCN(C(=O)c2ccc3[nH]ccc3c2)CC1)[C@H]1CCc2c(O)cccc2C1 [Compound (−)-45, (S)-(4-{2-[(5-Hydroxy-1,2,3,4-tetrahydro-naphthalen-2-yl)-propyl-amino]-ethyl}-piperazin-1-yl)-(1H-indol-5-yl)-methanone]
Ki (D3 receptor): 2.27 nM
Ki (D2L receptor): 157 nM

CN1CCc2cccc3c2[C@H]1Cc1ccc(O)c(O)c1-3 [apomorphine]
Average contralateral rotation (6-OHDA lesioned rats): > 250
